“And” between values parts separate entries of the source, which are not always exact repeats. Equal values may be shown once. Inconclusive results and toxic doses are left out.

This experiment has as its system L1210 leukemia ip in BDF1 mice, survival T/C. As to the kind of experiment: NCI In Vivo Anticancer Drug Screen. Data for tumor model L1210 Leukemia (intraperitoneal) in B6D2F1 (BDF1) mice. Conditions: higher = longer survival. The procedure, abridged: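 Survival endpoint. Drug-treated group vs vehicle group, expressed as T divided by C. Tumor passaged by transplantation.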

Setting [1] is: endpoint: mean survival time, dose: 100.0 mg/kg/injection, schedule: Q01DX001 (ip), vehicle: carboxymethylcellulose (CMC).
Setting [2] is: endpoint: mean survival time, dose: 200.0 mg/kg/injection, schedule: Q01DX001 (ip), vehicle: carboxymethylcellulose (CMC).
The mark [3] stands for this setting: endpoint: mean survival time, dose: 400.0 mg/kg/injection, schedule: Q01DX001 (ip), vehicle: carboxymethylcellulose (CMC).

As to `NC(=O)N(CCCl)N=O`, the T/C by setting is: (endpoint: mean survival time, dose: 0.06 mg/kg/injection, schedule: Q#A X Z (oral), vehicle: saline) 123 % of control; (endpoint: mean survival time, dose: 0.12 mg/kg/injection, schedule: Q01DX010 (iv), vehicle: saline) 98 % of control; (endpoint: mean survival time, dose: 0.13 mg/kg/injection, schedule: Q01DX Z (oral), vehicle: saline) 118 % of control; (endpoint: mean survival time, dose: 0.19 mg/kg/injection, schedule: Q03DX Z (oral), vehicle: saline) 112 % of control; (endpoint: mean survival time, dose: 0.2 mg/kg/injection, schedule: Q01DX Z (sc), vehicle: methylcellulose (MC)) 101 % of control; (endpoint: mean survival time, dose: 0.25 mg/kg/injection, schedule: Q01DX010 (iv), vehicle: saline) 118 % of control. For the same compound, the T/C reads like this: (endpoint: mean survival time, dose: 0.25 mg/kg/injection, schedule: Q01DX Z (oral), vehicle: saline) 182 % of control; (endpoint: mean survival time, dose: 0.25 mg/kg/injection, schedule: Q#A X Z (oral), vehicle: saline) 255 % of control; (endpoint: mean survival time, dose: 0.38 mg/kg/injection, schedule: Q03DX Z (oral), vehicle: saline) 121 % of control; (endpoint: mean survival time, dose: 0.4 mg/kg/injection, schedule: Q01DX Z (ip), vehicle: carboxymethylcellulose (CMC)) 157 % of control and 201 % of control; (endpoint: mean survival time, dose: 0.4 mg/kg/injection, schedule: Q01DX Z (ip), vehicle: methylcellulose (MC)) 151 % of control; (endpoint: mean survival time, dose: 0.4 mg/kg/injection, schedule: Q01DX Z (sc), vehicle: methylcellulose (MC)) 98 % of control and 101 % of control. Moreover, the T/C reads like this: (endpoint: mean survival time, dose: 0.44 mg/kg/injection, schedule: Q07DX Z (oral), vehicle: saline) 105 % of control; (endpoint: mean survival time, dose: 0.5 mg/kg/injection, schedule: Q01DX009 (ip), vehicle: saline) 159 % of control and 163 % of control and 176 % of control; (endpoint: mean survival time, dose: 0.5 mg/kg/injection, schedule: Q01DX Z (oral), vehicle: saline) 266 % of control; (endpoint: mean survival time, dose: 0.6 mg/kg/injection, schedule: Q01DX Z (ip), vehicle: carboxymethylcellulose (CMC)) 170 % of control and 197 % of control; (endpoint: mean survival time, dose: 0.6 mg/kg/injection, schedule: Q01DX Z (ip), vehicle: methylcellulose (MC)) 166 % of control and 171 % of control; (endpoint: mean survival time, dose: 0.6 mg/kg/injection, schedule: Q01DX Z (sc), vehicle: methylcellulose (MC)) 98 % of control and 101 % of control. Moreover, the T/C was 124 % of control (endpoint: mean survival time, dose: 0.88 mg/kg/injection, schedule: Q07DX Z (oral), vehicle: saline); 205 % of control and 257 % of control (endpoint: mean survival time, dose: 0.9 mg/kg/injection, schedule: Q01DX Z (ip), vehicle: carboxymethylcellulose (CMC)); 181 % of control and 250 % of control (endpoint: mean survival time, dose: 0.9 mg/kg/injection, schedule: Q01DX Z (ip), vehicle: methylcellulose (MC)); 117 % of control (endpoint: mean survival time, dose: 0.9 mg/kg/injection, schedule: Q01DX Z (oral), vehicle: carboxymethylcellulose (CMC)); 98 % of control and 101 % of control (endpoint: mean survival time, dose: 0.9 mg/kg/injection, schedule: Q01DX Z (sc), vehicle: methylcellulose (MC)); 202 % of control and 222 % of control and 253 % of control (endpoint: mean survival time, dose: 1.0 mg/kg/injection, schedule: Q01DX009 (ip), vehicle: saline). For the same compound, the T/C by setting is: (endpoint: mean survival time, dose: 1.0 mg/kg/injection, schedule: Q01DX010 (iv), vehicle: saline) 215 % of control; (endpoint: mean survival time, dose: 1.35 mg/kg/injection, schedule: Q01DX Z (ip), vehicle: carboxymethylcellulose (CMC)) 176 % of control and 227 % of control; (endpoint: mean survival time, dose: 1.5 mg/kg/injection, schedule: Q03DX Z (oral), vehicle: saline) 234 % of control; (endpoint: mean survival time, dose: 1.6 mg/kg/injection, schedule: Q01DX Z (oral), vehicle: methylcellulose (MC)) 167 % of control; (endpoint: mean survival time, dose: 1.75 mg/kg/injection, schedule: Q07DX Z (oral), vehicle: saline) 178 % of control; (endpoint: mean survival time, dose: 1.8 mg/kg/injection, schedule: Q01DX Z (oral), vehicle: carboxymethylcellulose (CMC)) 102 % of control and 117 % of control. The T/C was 219 % of control and 317 % of control and 319 % of control (endpoint: mean survival time, dose: 2.0 mg/kg/injection, schedule: Q01DX009 (ip), vehicle: saline); 123 % of control (endpoint: mean survival time, dose: 2.0 mg/kg/injection, schedule: Q01DX010 (iv), vehicle: saline); 114 % of control (endpoint: mean survival time, dose: 3.5 mg/kg/injection, schedule: Q01DX Z (oral), vehicle: carboxymethylcellulose (CMC)); 266 % of control (endpoint: mean survival time, dose: 3.5 mg/kg/injection, schedule: Q07DX Z (oral), vehicle: saline); 239 % of control and 271 % of control and 91 % of control (endpoint: mean survival time, dose: 3.6 mg/kg/injection, schedule: Q01DX001 (ip), vehicle: saline); 111 % of control and 113 % of control (endpoint: mean survival time, dose: 4.0 mg/kg/injection, schedule: Q01DX009 (ip), vehicle: saline). Further, the T/C (endpoint: mean survival time, dose: 7.0 mg/kg/injection, schedule: Q01DX Z (oral), vehicle: carboxymethylcellulose (CMC)) was 194 % of control; the T/C (endpoint: mean survival time, dose: 7.2 mg/kg/injection, schedule: Q01DX001 (ip), vehicle: saline) is 265 % of control and 303 % of control; the T/C (endpoint: mean survival time, dose: 14.0 mg/kg/injection, schedule: Q01DX Z (oral), vehicle: carboxymethylcellulose (CMC)) is 111 % of control; the T/C (endpoint: mean survival time, dose: 25.0 micrograms/kg/injection, schedule: Q01DX Z (oral), vehicle: steriod suspending solution) was 101 % of control; the T/C (endpoint: mean survival time, dose: 50.0 micrograms/kg/injection, schedule: Q01DX Z (oral), vehicle: steriod suspending solution) is 104 % of control; the T/C (endpoint: mean survival time, dose: 100.0 micrograms/kg/injection, schedule: Q01DX Z (oral), vehicle: steriod suspending solution) is 115 % of control. For the same compound, the T/C (endpoint: mean survival time, dose: 110.0 micrograms/kg/injection, schedule: Q01DX Z (sc), vehicle: steriod suspending solution) is 102 % of control; the T/C (endpoint: mean survival time, dose: 200.0 micrograms/kg/injection, schedule: Q01DX Z (oral), vehicle: steriod suspending solution) was 165 % of control; the T/C (endpoint: mean survival time, dose: 220.0 micrograms/kg/injection, schedule: Q01DX Z (sc), vehicle: steriod suspending solution) is 105 % of control; the T/C (endpoint: mean survival time, dose: 450.0 micrograms/kg/injection, schedule: Q01DX Z (sc), vehicle: steriod suspending solution) was 124 % of control; the T/C (endpoint: median survival time, dose: 0.5 mg/kg/injection, schedule: Q01DX009 (ip), vehicle: saline) was 162 % of control; the T/C (endpoint: median survival time, dose: 1.0 mg/kg/injection, schedule: Q01DX009 (ip), vehicle: saline) is 206 % of control. Moreover, the T/C runs as follows: (endpoint: median survival time, dose: 2.0 mg/kg/injection, schedule: Q01DX009 (ip), vehicle: saline) 181 % of control; (endpoint: median survival time, dose: 4.0 mg/kg/injection, schedule: Q01DX009 (ip), vehicle: saline) 112 % of control.

Regarding `Cc1cc2ccccc2cn1`, the T/C by setting is: (endpoint: mean survival time, dose: 50.0 mg/kg/injection, schedule: Q01DX001 (ip), vehicle: other) 103 % of control; (endpoint: mean survival time, dose: 100.0 mg/kg/injection, schedule: Q01DX001 (ip), vehicle: other) 101 % of control; (endpoint: mean survival time, dose: 100.0 mg/kg/injection, schedule: Q04DX003 (ip), vehicle: saline with Tween-80) 96 % of control; (endpoint: mean survival time, dose: 200.0 mg/kg/injection, schedule: Q01DX001 (ip), vehicle: other) 95 % of control; (endpoint: mean survival time, dose: 200.0 mg/kg/injection, schedule: Q04DX003 (ip), vehicle: saline with Tween-80) 103 % of control.

As for `O=c1oc2ccc(Cl)cc2n1CN1CCOCC1`, the T/C is 96 % of control under setting [1], 96 % of control under setting [2] and 88 % of control under setting [3].

For the compound `CC(=O)N(C)c1ccc(NC(=O)Cc2ccccc2)cc1`, the T/C reads like this: (endpoint: mean survival time, dose: 100.0 mg/kg/injection, schedule: Q01DX009 (ip), vehicle: saline with Tween-80) 96 % of control; (endpoint: mean survival time, dose: 200.0 mg/kg/injection, schedule: Q01DX009 (ip), vehicle: saline with Tween-80) 102 % of control; (endpoint: mean survival time, dose: 400.0 mg/kg/injection, schedule: Q01DX009 (ip), vehicle: saline with Tween-80) 95 % of control.

Regarding `O=C(COc1cccc(Cl)c1)Nc1ccccc1S(=O)(=O)F`, the T/C (endpoint: mean survival time, dose: 100.0 mg/kg/injection, schedule: Q04DX003 (ip), vehicle: other) is 89 % of control; the T/C (endpoint: mean survival time, dose: 200.0 mg/kg/injection, schedule: Q04DX003 (ip), vehicle: other) is 87 % of control; the T/C (endpoint: mean survival time, dose: 400.0 mg/kg/injection, schedule: Q04DX003 (ip), vehicle: other) was 98 % of control.

For the compound `COc1ncnc(=O)[nH]1`, the T/C by setting is: (endpoint: mean survival time, dose: 100.0 mg/kg/injection, schedule: Q01DX001 (ip), vehicle: saline) 97 % of control; (endpoint: mean survival time, dose: 200.0 mg/kg/injection, schedule: Q01DX001 (ip), vehicle: saline) 98 % of control; (endpoint: mean survival time, dose: 400.0 mg/kg/injection, schedule: Q01DX001 (ip), vehicle: saline) 97 % of control.

As to `[Cl][Bi]([Cl])([c]1ccccc1)([c]1ccccc1)[c]1ccccc1`, the T/C was 98 % of control (endpoint: mean survival time, dose: 100.0 mg/kg/injection, schedule: Q04DX002 (ip), vehicle: Klucel (hydroxypropylcellulose) (HPC)); 92 % of control (endpoint: mean survival time, dose: 200.0 mg/kg/injection, schedule: Q04DX002 (ip), vehicle: Klucel (hydroxypropylcellulose) (HPC)); 98 % of control (endpoint: mean survival time, dose: 400.0 mg/kg/injection, schedule: Q04DX002 (ip), vehicle: Klucel (hydroxypropylcellulose) (HPC)).

On to `C1=CC(c2ccccc2)=C(c2ccccc2)C(c2ccccc2)C(c2ccccc2)=C1` (centres undefined), for which the T/C by setting is: (endpoint: mean survival time, dose: 50.0 mg/kg/injection, schedule: Q01DX001 (ip), vehicle: carboxymethylcellulose (CMC)) 94 % of control; under setting [1], 96 % of control; under setting [2], 96 % of control; under setting [3], 89 % of control.

The values above are taken from PubChem BioAssay AID248 (DTP/NCI, 2004).
